Laboratory results from ChEMBL document CHEMBL5512643, “Structure-based discovery of potent myosin inhibitors to guide antiparasite drug development” (Eur J Med Chem, 2024).
≈ marks a conversion by molar mass, not a printed value. Calls of active or inactive are those of the source. The rule behind the calls is not given here.

Experiments:
Gyrodactylus kobayashii [1] = experiment: Antiparasitic activity against Gyrodactylus kobayashii infected in gold fish measured upto 48 hrs by stereomicroscope analysis; format: functional, organism-based
[2] = Acute toxicity in gold fish infected with Gyrodactylus kobayashii measure upto 48 hrs by microscopic analysis; conditions: carassius auratus
Gyrodactylus kobayashii [3] = experiment: Binding affinity to Gyrodactylus kobayashii Myosin expressed in Escherichia coli BL21 assessed as thermal stabilization at 1 mM at 40 to 50 degreeC by CETSA analysis
[4] = Inhibition of wild type Gyrodactylus kobayashii Myosin ATPase activity incubated for 30 mins
[5] = Inhibition of Gyrodactylus kobayashii Myosin N439A mutant ATPase activity incubated for 30 min
[6] = Therapeutic index, ratio of LC50 for acute toxicity in gold fish infected with Gyrodactylus kobayashii to EC50 for antiparasitic activity against Gyrodactylus kobayashii infected in gold fish; conditions: goldfish
SARS-CoV-2 = experiment: Antiviral activity against SARS-CoV-2 infected in African green monkey Vero cells assessed as inhibition of viral replication pretreated with compound for 2 hr followed by viral infection and measured after 48 hrs by indirect immunofluorescence assay; format: functional, organism-based; conditions: Severe acute respiratory syndrome coronavirus 2, Vero
[7] = Gyrodactylus kobayashii, 48 h, read-out: EC50

## COc1cc(C2Oc3ccc(C4Oc5cc(O)cc(O)c5C(=O)C4O)cc3OC2CO)ccc1O (configuration not stated)
Gyrodactylus kobayashii [1]; [7]
  EC50: 7.53 µg/mL (≈ 15.6 µM)
[2]
  LC50 at 48 h: 26.2 µg/mL (≈ 54.4 µM)

## O=c1cc(-c2ccccc2)oc2c([C@@H]3OC[C@H](O)[C@H](O)[C@H]3O)c(O)c([C@@H]3O[C@H](CO)[C@@H](O)[C@H](O)[C@H]3O)c(O)c12
Gyrodactylus kobayashii [1]; [7]
  EC50: 7.58 µg/mL (≈ 13.8 µM)

## C[C@@H]1O[C@@H](O[C@H]2C(=O)c3c(O)cc(O)cc3O[C@H]2c2ccc(O)c(O)c2)[C@H](O)[C@H](O)[C@H]1O
Gyrodactylus kobayashii [1]; [7]
  EC50: 15.9 µg/mL (≈ 35.3 µM)
[2]
  LC50 at 48 h: 26.5 µg/mL (≈ 58.7 µM)
[2]; 48 h
  LC50: 24.975 µg/mL (≈ 55.5 µM)

## C[C@@H]1O[C@@H](Oc2cc(O)c3c(=O)c(O)c(-c4ccc(O)cc4)oc3c2O)[C@H](O)[C@H](O[C@@H]2O[C@H](CO)[C@@H](O)[C@H](O)[C@H]2O)[C@H]1O
Gyrodactylus kobayashii [1]; [7]
  EC50: 11.3 µg/mL (≈ 18.5 µM)
[2]
  LC50 at 48 h: 13.2 µg/mL (≈ 21.7 µM)

## CO[C@H]1C[C@H](O[C@H]2CC[C@]3(C)[C@H]4CC[C@]5(C)[C@@H](C6=CC(=O)OC6)CC[C@]5(O)[C@@H]4CC[C@]3(O)C2)O[C@H](C)[C@H]1O[C@@H]1O[C@H](CO)[C@@H](O)[C@H](O)[C@H]1O
Gyrodactylus kobayashii [1]; [7]
  EC50: 3.89 µg/mL (≈ 5.59 µM)
[2]
  LC50 at 48 h: 4.12 µg/mL (≈ 5.92 µM)

## Cc1c([C@H](C)[C@@H]2NC[C@@H](C)C[C@H]2O)ccc2c1C[C@H]1[C@H]2CC=C2C[C@@H](O[C@@H]3O[C@H](CO)[C@@H](O)[C@H](O)[C@H]3O)CC[C@@]21C
Gyrodactylus kobayashii [1]; [7]
  EC50: 4.58 µg/mL (≈ 8.02 µM)
[2]
  LC50 at 48 h: 15.2 µg/mL (≈ 26.7 µM)

## COC(=O)[C@H]1O[C@@H](Oc2cc3oc(-c4ccc(O)cc4)cc(=O)c3c(O)c2O)[C@H](O)[C@@H](O)[C@@H]1O
Gyrodactylus kobayashii [1]; [7]
  EC50: 7.23 µg/mL (≈ 15.2 µM)
[2]
  LC50 at 48 h: 11.4 µg/mL (≈ 23.9 µM)

## C[C@@H]1O[C@@H](Oc2cc(O)c3c(=O)c(O)c(-c4ccc(O)cc4)oc3c2)[C@H](O)[C@H](O)[C@H]1O [ALPHA-RHAMNOISOROBIN]
Gyrodactylus kobayashii [1]; [7]
  EC50: 8.27 µg/mL (≈ 19.1 µM)
[2]
  LC50 at 48 h: 9.3 µg/mL (≈ 21.5 µM)

## CCCCC[C@H](O)/C=C/[C@H]1[C@H](O)CC(=O)[C@@H]1CCCCCCC(=O)O [ALPROSTADIL]
Gyrodactylus kobayashii [1]; [7]
  EC50: 16.2 µg/mL (≈ 45.8 µM)
[2]
  LC50 at 48 h: 30.5 µg/mL (≈ 86 µM)

## COc1cc(C[C@H]2C(=O)OC[C@@H]2Cc2ccc(OC)c(OC)c2)ccc1O [ARCTIGENIN]
Gyrodactylus kobayashii [1]; [7]
  EC50: 1.85 µg/mL (≈ 4.97 µM)
Gyrodactylus kobayashii [3]
  Activity: Active
[4]
  IC50: 677 µM
[5]
  IC50: 3210 µM
[2]
  LC50 at 48 h: 11.6 µg/mL (≈ 31.2 µM)

## O=C(/C=C/c1ccccc1)c1ccccc1 [CHALCONE]
Gyrodactylus kobayashii [1]; [7]
  EC50: 1.08 µg/mL (≈ 5.21 µM)
[4]
  IC50: 440 µM
[2]
  LC50 at 48 h: 7.66 µg/mL (≈ 36.8 µM)

## O=C1C=CC(=O)c2c(O)cccc21 [JUGLONE]
Gyrodactylus kobayashii [1]; [7]
  EC50: 0.72 µg/mL (≈ 4.13 µM)

## O=C1C=C(O)C(=O)c2ccccc21 [LAWSONE]
Gyrodactylus kobayashii [1]; [7]
  EC50: 3.53 µg/mL (≈ 20.3 µM)
[6]
  selectivity ratio: 3.03
[2]
  LC50 at 48 h: 10.7 µg/mL (≈ 61.4 µM)

## O=C1c2ccccc2C(=O)c2c1cc(O[C@@H]1O[C@H](CO[C@@H]3OC[C@@H](O)[C@H](O)[C@H]3O)[C@@H](O)[C@H](O)[C@H]1O)c(CO)c2O [LUCIDIN PRIMEVOROSIDE]
Gyrodactylus kobayashii [1]; [7]
  EC50: 4.15 µg/mL (≈ 7.35 µM)
[2]
  LC50 at 48 h: 8.24 µg/mL (≈ 14.6 µM)

## CC1=CC(=O)c2ccccc2C1=O [MENADIONE]
Gyrodactylus kobayashii [1]; [7]
  EC50: 0.341 µg/mL (≈ 1.98 µM)
[6]
  selectivity ratio: 3.5
[2]
  LC50 at 48 h: 1.19 µg/mL (≈ 6.93 µM)

## O=C1C=CC(=O)c2ccccc21 [NAPHTHOQUINONE]
Gyrodactylus kobayashii [1]; [7]
  EC50: 0.047 µg/mL (≈ 0.297 µM)
[6]
  selectivity ratio: 4.89
[2]
  LC50 at 48 h: 0.23 µg/mL (≈ 1.45 µM)

## COc1ccc(CCC(=O)c2c(O)cc(O[C@@H]3O[C@H](CO)[C@@H](O)[C@H](O)[C@H]3O[C@@H]3O[C@@H](C)[C@H](O)[C@@H](O)[C@H]3O)cc2O)cc1O [NEOHESPERIDIN DIHYDROCHALCONE]
Gyrodactylus kobayashii [1]; [7]
  EC50: 13.4 µg/mL (≈ 21.9 µM)
[2]
  LC50 at 48 h: 25.5 µg/mL (≈ 41.6 µM)

## C#CCC(Cc1cnc2nc(N)nc(N)c2n1)c1ccc(C(=O)N[C@@H](CCC(=O)O)C(=O)O)cc1 (some centres not stated) [PRALATREXATE]
SARS-CoV-2
  EC50: 0.008 µM

## NC(=O)[C@@H]1CCCN1C(=O)[C@H](Cc1cnc[nH]1)NC(=O)[C@@H]1CCC(=O)N1 [PROTIRELIN]
Gyrodactylus kobayashii [1]; [7]
  EC50: 9.52 µg/mL (≈ 26.3 µM)
[2]
  LC50 at 48 h: 16.3 µg/mL (≈ 44.9 µM)

## O=C(O)[C@H]1O[C@@H](Oc2cc3oc(-c4ccc(O)cc4)cc(=O)c3c(O)c2O)[C@H](O)[C@@H](O)[C@@H]1O [SCUTELLARIN]
Gyrodactylus kobayashii [1]; [7]
  EC50: 7.15 µg/mL (≈ 15.5 µM)
[2]
  LC50 at 48 h: 13.3 µg/mL (≈ 28.7 µM)

## CC(C)=CC[C@@H](O)C1=CC(=O)c2c(O)ccc(O)c2C1=O [SHIKONIN]
Gyrodactylus kobayashii [1]
  EC50: 0.37 µg/mL (≈ 1.28 µM)
Gyrodactylus kobayashii [1]; [7]
  EC50: 0.371 µg/mL (≈ 1.29 µM)
[6]
  selectivity ratio: 3.49
[4]
  IC50: 140 µM
[2]
  LC50 at 48 h: 1.29 µg/mL (≈ 4.47 µM)

## O=C1OC[C@H]2O[C@@H](Oc3cc(O)c(C(=O)CCc4ccccc4)c(O)c3)[C@H](O)[C@@H](O)[C@@H]2OC(=O)c2cc(O)c(O)c(O)c2-c2c1cc(O)c(O)c2O [THONNINGIANIN B]
Gyrodactylus kobayashii [1]; [7]
  EC50: 6.31 µg/mL (≈ 8.73 µM)
[2]
  LC50 at 48 h: 21.5 µg/mL (≈ 29.8 µM)
